PMC11986105, “Antibacterial macrocyclic peptides reveal a distinct mode of BamA inhibition” (Nature Communications, 2025)
Converted amounts (≈) assume the structure as drawn. Like-named read-outs stand apart in the source and are kept apart here. Bridge positions count the residues as written; N and C are the ends. Square brackets hold non-standard residues; d marks the D form. Peptide text beside a SMILES is read from it. Gly(NCH2CH2Ph) = O=C(O)CNCCc1ccccc1; NMeF = CN[C@@H](Cc1ccccc1)C(=O)O; Tic = O=C(O)[C@@H]1Cc2ccccc2CN1

What was measured:
[1] = test system: wild-type EspP assembly in AD202; assay: Pulse-chase assembly of wild-type EspP in AD202; type: cell-based, Escherichia coli; settings: 0.8 M sorbitol 2 min after start of chase, 28 °C
Protocol: To analyze the assembly of OMPs in living cells, overnight cultures of HDB164 (MC4100 ara^R bamA101 ompT::spc) transformed with pJH110 (Ptrc-espPΔ5)[65] or AD202 transformed with pRSL5 (Ptrc-espP)[77] or pJH224 [Ptrc-espP (G1123R)][67] were grown in M9 supplemented with 100 μg/mL ampicillin (M9/ampicillin) at 37 °C. The overnight cultures were washed in M9 and added to 50 ml fresh M9/ampicillin at OD550 = 0.02. When the cultures reached OD550 = 0.2, IPTG (10 μM) was added and the cells were incubated for another 30 min at 37 °C before being subjected to pulse-chase labeling as previously described[66]. At each timepoint 1 ml aliquots were removed and proteins were precipitated by adding 10% (v/v) TCA. […] As a control, an equal amount of DMSO was added. […] Radioactive proteins were visualized on a Fuji FLA 9000 imager using phoshophorimaging settings, and data was quantitated using Fuji MultiGauge v.
For experiments that involved EspP or EspP derivatives, the accumulated β-barrel was defined as the normalized β-barrel signal, where the normalization factor was (preproEspPsignal + proEspPsignal + β-domainsignal) at the 0 min timepoint for each condition and each experiment. For some experiments that involved EspP or EspP derivatives, the percent cleavage at each timepoint was also measured and was defined as [β-barrel signal /(proEspPsignal + β-barrelsignal)] x 100. […]

[2] = test system: EspP(G1123R) assembly in AD202 (bamA+); assay: Pulse-chase assembly of slow mutant EspP(G1123R) in AD202; type: cell-based, Escherichia coli; settings: for effect on EspP(G1123R) assembly when added after the mutant binds to BAM: added 2 min after the start of the chase, peptides 2x MIC, EDTA 2.5 mM, sorbitol 0.8 M
Protocol: AD202 (MC4100 ompT::kan) transformed with pJH224 [Ptrc-espP(G1123R)] were grown to log phase in M9, the expression of espP(G1123R) was induced by adding 10 µM IPTG, and cells were subjected to pulse-chase labeling. […] Immunoprecipitations were performed using an anti-EspP C-terminal peptide antiserum and proteins were resolved by SDS-PAGE. Representative experiments are shown (left), and the completion of EspP(G1123R) assembly was quantitated by calculating the percent of radiolabeled proEspP(G1123R) that underwent autocatalytic cleavage in untreated cells (control) or cells treated with the indicated peptide 2 min after the start of the chase (red arrows) in three biologically independent experiments (right). […] The data are presented as mean values and error bars represent the SEM. In C 2.5 mM EDTA was added 2 min post-chase, and in E cells were harvested and resuspended in M9 (control) or M9 containing 0.8 M sorbitol 2 min post-chase. A representative experiment is shown (left), and the assembly of EspP(G1123R) in cells treated with EDTA or sorbitol or untreated (control) in three biologically independent experiments was quantitated as in B (right).
To analyze the assembly of OMPs in living cells, overnight cultures of HDB164 (MC4100 ara^R bamA101 ompT::spc) transformed with pJH110 (Ptrc-espPΔ5)[65] or AD202 transformed with pRSL5 (Ptrc-espP)[77] or pJH224 [Ptrc-espP (G1123R)][67] were grown in M9 supplemented with 100 μg/mL ampicillin (M9/ampicillin) at 37 °C. The overnight cultures were washed in M9 and added to 50 ml fresh M9/ampicillin at OD550 = 0.02. When the cultures reached OD550 = 0.2, IPTG (10 μM) was added and the cells were incubated for another 30 min at 37 °C before being subjected to pulse-chase labeling as previously described[66]. At each timepoint 1 ml aliquots were removed and proteins were precipitated by adding 10% (v/v) TCA. […] As a control, an equal amount of DMSO was added. In some experiments, 2.5 mM EDTA, pH 8 was added instead of a cyclic peptide. […]

[3] = test system: AD202 transformed with pJH224; settings: 2.5 mM EDTA or peptide at 2x MIC, 5 or 15 min
Protocol: Overnight cultures of AD202 transformed with pJH224 were grown at 37 °C in M9/ampicillin, washed, and added to 55 ml of fresh medium at OD550 = 0.02. When cultures reached OD550 = 0.2, 10 μM IPTG was added and cultures were incubated at 37 °C for an additional 15 min. Cultures were then divided into five 10 ml aliquots and placed into 15 ml tubes. Cells were pelleted in 15 ml tubes (3000 x g, 15 min, room temperature), resuspended in 1 ml pre-warmed M9 and transferred to 50 ml tubes. […] Cells were then placed into 1.7 ml tubes on ice for 5 min and centrifuged (2900 x g, 6 min, 4 °C). The cell pellet was discarded and the supernatant was centrifuged in a TLA.2 rotor in a Beckman Optima MAX-TL ultracentrifuge (100,000 x g, 30 min, 4 °C). Once again the pellet was discarded, and 5 mL 4x LDS sample buffer was then added to 20 mL of each supernatant (which represents the culture medium of ~0.05 OD equivalents), and molecules located in the culture medium were resolved by SDS-PAGE on 12% Novex Tris-Bis minigels (ThermoFisher) using MES running buffer. LPS was visualized using the Molecular Probes Pro-Q Emerald 300 Lipopolysaccharide Gel Stain Kit (ThermoFisher) following the manufacturer’s instructions.

E. coli BamA β-barrel = molecular target: T1, E. coli BamA β-barrel (Escherichia coli, UniProt P0A940); assay: SPR binding to E. coli BamA β-barrel; settings: for KD: SPR, N-terminally biotinylated E. coli BamA β-barrel, single cycle kinetics, average of 2, 3, or 4 replicates ± SD; for kon: pH 7.5, read-out: ka
T1 construct: residues 421–810 from strain MG1655; made in house
From the text: For SPR, E. coli K-12 BamA (EcBamA; residues 421–810 from strain MG1655), A. baumannii BamA (AbBamA; residues 425–841 from strain ATCC19606) and P. aeruginosa BamA (PaBamA; residues 420–797 from strain PAO1) were synthesized and cloned into pET23b (Millipore Sigma) with a N-terminal Avitag for biotin conjugation. For mRNA display screening, an additional E. coli BamA (421–810) construct (EcBamA′) was designed with an N-terminal His tag, a TEV protease cleavage site, and three point mutations (C690S/C700S/S752C) to allow for site specific biotinylation of residue 752.
For peptide binding assays a Cytiva Series S CAP sensor chip was loaded onto a Biacore T200, and the chip surface was prepared according to the manufacturer’s recommendations. The running buffer was 10 mM HEPES pH 7.5, 150 mM NaCl, 0.1% LDAO. Briefly, the CAP reagent (Cytiva) was diluted 1:10 in HBS-EP buffer (0.01 M HEPES pH 7.4, 0.15 M NaCl, 3 mM EDTA, 0.005% v/v Surfactant P20) and flowed across the chip surface for 300 sec. Biotinylated EcBamA, PaBamA, or AbBamA was then immobilized on the surface by flowing the protein over the chip for 200 sec. Cyclic peptides were injected at concentrations of 12.3, 37, 111, 333 and 1000 nM in single-cycle kinetic mode for 120 sec followed by a 120 sec dissociation period, and after the highest concentration of peptide was injected the dissociation period was 1200 sec. The chip surface was regenerated after each peptide was tested by flowing regeneration solution (8 M guanidine HCl, 1 M NaOH) over the chip surface.

[4] = test system: E. coli WT (JCM158, MC4100 ara^r); type: cell-based, Escherichia coli
Protocol: (§1) The MICs of the cyclic peptides obtained in the mRNA display screens against E. coli strains JCM158 and JCM972 were measured using broth microdilution in cation-adjusted Mueller−Hinton broth (CAMHB), as recommended by the Clinical and Laboratory Standards Institute. In addition, zone of inhibition (ZOI) assays using JCM158, JCM972, AM710, AM711, MB5746, Acinetobacter baumannii ATCC17987, Pseudomonas aeruginosa MB5919, and Staphylococcus aureus Col were performed to provide a visual display of the relative susceptibility of the strains to the peptides. Briefly, ZOI studies were performed by first growing the bacteria in CAMHB to late exponential phase at 37 °C. Molten CAMHA (CAMHB containing 1.2% agar) was equilibrated to 48 °C in a water bath for 60 min. Cells were then mixed with 30 mL of the molten CAMHA at a 1:1000 dilution and immediately poured onto an Omni-tray plate (NUNC cat# 242811). The agar plate was kept at room temperature for 20 min to solidify and further dried in a biosafety cabinet for ~20 min. Each peptide was dissolved in DMSO, and 2–5 µL aliquots were dispensed onto the top of the plate in a two-fold dilution series in which the peptides were diluted in DMSO. After the liquid was absorbed, plates were incubated at 37 °C for 18 h, and images were acquired using a Hi-Res imaging system.

[5] = test system: E. coli BamA101 (JCM972, MC4100 bamA101); type: cell-based, Escherichia coli; settings: in solution, CAMHB broth microdilution
Protocol: as §1

[6] = test system: EspP(G1123R) assembly in AD202 (bamA+); design: method as in PMID 36165532; settings: cited from earlier work

Row | Compound | effect on EspP(G1123R) assembly when added after the mutant binds to BAM [2] | KD (E. coli BamA β-barrel) | MIC E. coli BamA101 [5] | kon (E. coli BamA β-barrel) | MIC E. coli WT ([4]; JCM158, 18 h) | other results
1 | OC[C@@H](O)[C@@H](O)[C@H](O)[C@@H](O)CO [sorbitol] | accelerate | – | – | – | – | effect on assembly of wild-type EspP, sorbitol [1]: slightly delay
2 | O=C(O)CN(CCN(CC(=O)O)CC(=O)O)CC(=O)O [EDTA] | accelerate | – | – | – | – | effect on EspP(G1123R) assembly, EDTA added prior to synthesis ([2]; 2.5 mM EDTA added 1 min or 5 min before the start of the chase): accelerates; release of LPS into the culture medium [3]: releasing LPS into the culture medium
3 | CC(C)C[C@@H]1NC(=O)[C@H](Cc2ccccc2)NC(=O)CSC[C@@H](C(=O)NCC(N)=O)NC(=O)[C@H](CC(=O)O)NC(=O)[C@H](Cc2ccccc2)N(C)C(=O)CNC(=O)[C@H](CCCNC(=N)N)NC(=O)[C@H](C(C)C)NC(=O)[C@@H]2CCCN2C(=O)[C@H](CCCNC(=N)N)NC(=O)[C@H](Cc2c[nH]cn2)NC(=O)[C@H](Cc2ccc(O)cc2)NC(=O)[C@H](Cc2ccccc2)N(C)C(=O)[C@H](Cc2c[nH]c3ccccc23)NC1=O [CP1, F.L.W.MePhe.Y.H.R.P.V.R.G.MePhe.D.C.G] ({CH2CO}-FLW[NMeF]YHRPVRG[NMeF]DCG-NH2; thioether N-14) | – | low-nanomolar range | 12.5 µM (≈ 24.6 µg/mL) | – | – | MIC E. coli WT ([4]; in solution, CAMHB broth microdilution): > 50 µM
4 | NC(N)=NC(=O)CC(Nc1nc(N=C(N)N)nc(NC2CCC(NC(=O)Cn3nnc(-c4ccc(F)cc4)n3)CC2)n1)C1CC1 (centres unmarked) [MRL-494] | – | – | – | – | – | effect on EspP(G1123R) assembly when added after the protein binds to BAM [6]: inhibit the assembly
5 | CC(C)C[C@@H]1NC(=O)CN(CCc2ccccc2)C(=O)[C@H](Cc2ccc(O)cc2)NC(=O)[C@H](CCCNC(=N)N)NC(=O)[C@H](CCCNC(=N)N)NC(=O)[C@H](Cc2ccccc2)NC(=O)CSC[C@@H](C(=O)NCC(N)=O)NC(=O)[C@H](Cc2ccc(O)cc2)NC(=O)[C@@H]2Cc3ccccc3CN2C(=O)[C@H](C(C)C)NC(=O)[C@H](Cc2c[nH]c3ccccc23)NC(=O)[C@H](Cc2ccc(O)cc2)NC(=O)[C@H](CC(N)=O)NC(=O)[C@H](CC(=O)O)NC1=O [CP3, F.R.R.Y.PeGly.L.D.N.Y.W.V.Tic.Y.C.G] ({CH2CO}-FRRY[Gly(NCH2CH2Ph)]LDNYWV[Tic]YCG-NH2; thioether N-14) | – | low-nanomolar range | 6.3 µM (≈ 13.3 µg/mL) | 160000 ± 3e+09 M⁻¹ s⁻¹ | > 50 µM | –
6 | CC(C)[C@@H]1NC(=O)[C@H](CO)NC(=O)[C@H](CCCNC(=N)N)NC(=O)[C@H](CO)NC(=O)[C@@H]2CCCN2C(=O)[C@H](Cc2c[nH]c3ccccc23)NC(=O)[C@@H]2Cc3ccccc3CN2C(=O)[C@H](Cc2c[nH]c3ccccc23)NC(=O)[C@H](CCCNC(=N)N)NC(=O)CNC(=O)[C@H](CO)NC(=O)[C@H](Cc2ccccc2)NC(=O)CSC[C@@H](C(=O)NCC(N)=O)NC(=O)CNC1=O [CP2, F.S.G.R.W.Tic.W.P.S.R.S.V.G.C.G] ({CH2CO}-FSGRW[Tic]WPSRSVGCG-NH2; thioether N-14) | – | low-nanomolar range | 6.3 µM (≈ 11.2 µg/mL) | 430000 ± 2.9e+10 M⁻¹ s⁻¹ | > 50 µM | –
